# Test system: balloon-denuded rats (coronary restenosis model)
# Experiment: Treatment of experimental rat model of coronary restenosis
# Format: in vivo, Sprague-Dawley rats
# Conditions: 0.3 mg kg^-1 docetaxel i.v. on day 0 and 5, arteries collected day 14, n=6
# Method: Sprague-Dawley rats following angioplasty-induced arterial denudation were injected intravenously with 1 mL of 5 mg mL^−1 docetaxel-loaded PNPs in 10% sucrose at a docetaxel dose of 0.3 mg kg^−1 on day 0 and day 5. As controls, animals receiving PBS, free docetaxel, and empty PNPs were prepared. On day 14, animals were euthanized with an overdose of ketamine-xylazine cocktail and perfused with PBS and 4% paraformaldehyde (PFA) at a pressure of 120-140 mm Hg. Segments of left and right carotid arteries were carefully dissected out, and the PFA-fixed carotid arteries were embedded with Tissue-Tek OCT compound (VWR International) in a tissue base mold and slowly submerged into pre-chilled 2-methyl butane until frozen completely. The frozen tissue block was then immediately stored at −80° C. until sectioning. Serial sectioning (15 μm per section) was performed with a Cyrotome cryostat machine (Leica), and the tissue sections were placed on polylysine-treated glass slides. Tissue sections on slides were dried at room temperature for 30 min before staining. For immunohistochemistry, frozen sections on slides were first washed with PBS to remove residual OCT medium and then subjected to standard hematoxylin and eosin (H&E) staining. Areas of intima and media were analyzed using Image J. Luminal obliteration is defined as the intima area/the area within the internal elastic lamina. […]
structure (smiles),measurement,value
"CC(=O)O[C@@]12CO[C@@H]1C[C@H](O)[C@@]1(C)C(=O)[C@H](O)C3=C(C)[C@@H](OC(=O)[C@H](O)[C@@H](NC(=O)OC(C)(C)C)c4ccccc4)C[C@@](O)([C@@H](OC(=O)c4ccccc4)[C@H]21)C3(C)C [free docetaxel, docetaxel]",intima-to-media ratio (I/M),0.76±0.18
same,luminal obliteration,33.6%

# — patent US11241394B2, “Treating vasculature related diseases or disorders using nanoparticles” (The Regents of the University of California, priority 2015, dated 2022)
